Reference: patent US10168338B2, “Methods of identifying modulators of sestrin-gator-2 interaction for modulating mTORC1 activity” (Whitehead Institute for Biomedical Research, priority 2014, dated 2019)

Legend:
Sestrin2 = biological target: T1, Sestrin2 (Homo sapiens, UniProt P58004); experiment: [3H]-labeled amino acid binding to FLAG-Sestrin2 immunoprecipitated from HEK-293T cells
T1 construct: expressed in transfected cells; host or cells: HEK-293T, transient transfection of a pRK5-based cDNA plasmid, anti-FLAG immunoprecipitation
T1 sequence (P58004 1-480): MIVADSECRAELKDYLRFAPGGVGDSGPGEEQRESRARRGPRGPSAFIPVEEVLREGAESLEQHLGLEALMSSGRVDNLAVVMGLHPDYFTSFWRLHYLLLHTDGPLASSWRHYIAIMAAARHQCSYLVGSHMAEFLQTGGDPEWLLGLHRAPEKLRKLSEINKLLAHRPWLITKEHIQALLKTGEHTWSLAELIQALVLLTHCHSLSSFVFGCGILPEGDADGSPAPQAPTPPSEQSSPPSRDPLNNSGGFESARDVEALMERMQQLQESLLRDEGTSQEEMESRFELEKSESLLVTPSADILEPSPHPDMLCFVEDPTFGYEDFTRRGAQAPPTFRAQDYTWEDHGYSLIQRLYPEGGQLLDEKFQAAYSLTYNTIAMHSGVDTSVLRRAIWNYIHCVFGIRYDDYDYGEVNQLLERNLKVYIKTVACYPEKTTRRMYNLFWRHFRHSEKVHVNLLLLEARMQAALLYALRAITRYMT
Procedure: Four million HEK-293T cells were plated in a 15 cm plate four days prior to the experiment. Each plate yielded the protein for one sample. Forty-eight hours after plating, the cells were transfected via the polyethylenimine method (O. Boussif et al., PNAS (USA), 92:7297-7301 (1995)) with the pRK5-based cDNA expression plasmids indicated in the figures in the following amounts: 5 μgFLAG-Sestrin2; 12 μg of the negative control Rap2A; 5 μg WDR24; 2 μg WDR24 with 4 μg each of HA-Seh1L, HA-Sec13, HA-Mios, and HA-WDR59; 12 […] (CG11299-PD); 12 μgFLAG-Sestrin1.1; 12 μg FLAG-Sestrin1.2; 12 μg FLAG-Sestrin3; 12 μg FLAG-Sestrin2 mutants (L261A, E451A, S190A) and up to 20 μg total DNA with empty-PRK5. Forty-eight hours after transfection cells were lysed as described in Example 1. If multiple samples of the same type were represented in the experiment, the cell lysates were combined, mixed, and evenly distributed amongst the relevant tubes, to ensure equal protein amounts across samples of the same type.
Anti-FLAG immunoprecipitates were prepared as previously described, with the exception that, prior to incubation with lysates, the beads were blocked by rotating in 1 μg/μl bovine serum albumin (BSA) for 20 minutes at 4° C. and subsequently washed twice in lysis buffer. Thirty μl of the 50/50 slurry of beads in lysis buffer was added to each of the clarified cell lysates and incubated as previously described in Example 1.
For the binding assays, two tubes at a time were washed as previously indicated for immunoprecipitations. All the liquid was subsequently aspirated and a 15 μl aliquot of proteins bound to the beads was incubated for one hour on ice in cytosolic buffer (0.1% Triton, 40 mM HEPES pH 7.4, 10 mM NaCl, 150 mM KCl, 2.5 mM MgCl2) with the appropriate amount of [^3H]-labeled amino acids and unlabeled amino acids. Tubes were flicked every five minutes. At the end of one hour, the beads were briefly spun down, aspirated dry, and rapidly washed three times with binding wash buffer (0.1% Triton, 40 mM HEPES pH 7.4, 150 mM NaCl). The beads were aspirated dry again and resuspended in 85 μl of binding wash buffer. With a cut tip, each sample was mixed well and three 10 μl aliquots were separately quantified using a TriCarb® scintillation counter (PerkinElmer). This process was repeated in pairs for each sample, to ensure similar incubation and wash times for all samples analyzed across different experiments.
Amino acid affinities to Sestrin2 were determined by first normalizing the bound [^3H]-labeled amino acid concentrations across three separate binding assays performed with varying amounts of unlabeled amino acid competition. These values were plotted and fit to a hyperbolic equation ([…]) to estimate the IC50 value. Kd or Ki values were derived from the IC50 value using the equation: Kd or Ki=IC50/(1+([[^3H]Leucine])/Kd).

[1] = biological target: T2, bacterially-produced Sestrin2 (Homo sapiens, UniProt P58004); experiment: [3H]-leucine binding to bacterially-produced His-MBP-Sestrin2 on Ni-NTA resin; settings: RagA-RagC heterodimer as control
T2 construct: made in house; host or cells: Escherichia coli BL21 DE3 star
T2 sequence (P58004 1-480): T1 sequence (P58004 1-480)
Procedure: Recombinant Sestrin2 was expressed in Escherichia coli (strain BL21 DE3 star) from the His-MBP-TEV-Sestrin2 in pMAL6H-CSXT plasmid. The bacterial cultures were grown at 30° C. to an optical density of 0.4 at which point the temperature was lowered to 18° C. After 30 minutes at 18° C., the cultures were induced overnight at 18° C. with 0.5 mM IPTG. The cells were subsequently resuspended in lysis buffer with TCEP (50 mM Tris pH 7.4, 200 mM NaCl, 5 mM MgCl2, 0.1% CHAPS, 1 mM TCEP, 200 μM leucine, and protease inhibitor tablets), which was then supplemented with lysozyme and crude DNAse. The cells underwent mechanical homogenization and the lysates were cleared by centrifugation and then loaded onto the Ni-NTA resin. […]
For binding assays performed with bacterially-produced proteins, 23.6 μg His-RagA/RagC, 23.6 μg His-MBP-TEV-Sestrin2, or 73.6 μg His-MBP-TEV-Sestrin2 were diluted into 500 μl lysis buffer (50 mM Tris pH 7.4, 200 mM NaCl, 5 mM MgCl2, 0.1% CHAPS) and incubated with 15 μl compact Ni-NTA resin as previously described. […] The samples were then well mixed with a cut tip and 10 μl of each was loaded into scintillation fluid in triplicate and quantified with a TriCarb® Scintillation Counter. Samples performed in parallel were eluted with lysis buffer+300 mM imidazole and analyzed by SDS-PAGE as described above.

Compound: CC(C)C[C@H](N)C(=O)O [leucine]
- binding of radiolabeled amino acid to Sestrin2 (Sestrin2; FLAG-Sestrin2 from HEK-293T, competed by excess unlabeled leucine): bound to Sestrin2
- Kd (Sestrin2; competition with unlabeled leucine, 10 μM 3H-leucine, three experiments): 20 ± 5 µM
- binding of radiolabelled leucine to bacterially-produced Sestrin2 [1]: bound to bacterially-produced Sestrin2
